The values below come from publication PMC4414571, “Peptides of Presenilin-1 Bind the Amyloid Precursor Protein Ectodomain and Offer a Novel and Specific Therapeutic Approach to Reduce ß-Amyloid in Alzheimer’s Disease” (PLoS ONE, 2015).

Ends that are not written are not given here.

Usually koff stands for a measure of how fast the partners let go of each other. A lower koff goes with slow dissociation. Usually kon stands for the second-order rate constant of association.

Data set [1] concerns BACE-1 in IMR-32 cells. Put plainly: BACE-1 activity in extracts of cultured IMR-32 cells. The note with it: 0–5 μM, 24 h, SensiZyme kit, 405 nm, percent control, n = 2–3. The class given is cell-based, human. As for the experimental part:
IMR-32 cells in culture were treated with peptides P4, P8 and scrambled peptide P1 (0–5 μM) or the BACE-1 inhibitor […] (Selleck Chemicals) (0–500 nM) for 24 h. Cells were harvested and extracts prepared by sonication and solubilization in cell lysis buffer containing 1% Triton X-100 and EDTA (Cell Signaling Technologies) and supplemented with complete protease inhibitor cocktail (Roche) according to the manufacturer’s protocols. BACE-1 activity was measured as already described above using the SensiZyme BACE-1 activity assay kit.

Data set [2] concerns IMR-32 human neuroblastoma cell-line (endogenous Aβ40 or 42 production). The data set can be described thus: Endogenous Aβ40 and 42 production in IMR-32 culture medium by ELISA. The class given is cell-based. The protocol: A human neuroblastoma cell-line, IMR-32 (ATCC CCL-127) was cultured in MEM Earles medium containing 10% fetal bovine serum, 2 mM L-glutamine in the presence of penicillin and streptomycin. Equal numbers of cells (0.3 x 10^6 per well) were plated on 6-well plates overnight. Peptides (0–5 μM) were added to fresh culture medium (500 μl per well) and left in the incubator for 24 hours, after which the culture medium from each well was removed and stored at -80°C in the presence of 4-(2-Aminoethyl) benzenesulfonyl fluoride hydrochloride (AEBSF) and protease inhibitors. Prior to use, the culture medium was centrifuged in an eppendorf microfuge for 5 min at 4°C, the supernatant diluted with an equal volume of sample diluent buffer (Wako) and analyzed for the presence of Aβ40 or 42 using a commercial ELISA kit (Wako).
On the technique in general: ELISA stands for enzyme-linked immunosorbent assay.

Data set [3] has as its target T1, soluble ectodomain of APP (APPs, APP 695) (Homo sapiens, UniProt P05067).
T1 construct: host or cells: Sf9 insect cells (baculovirus), conditioned medium
Put plainly: Biolayer interferometry, biotinylated peptides on streptavidin biosensors vs purified soluble APP (APPs). In kind it is binding. The note with it: biotinylated peptide on SA biosensors, 30°C. As for the experimental part:
Sf9 cells (ATCC CRL 1711) were grown in TMN-FH complete medium (Pharmingen) in suspension and infected at a multiplicity of infection of 2 with a titred stock of recombinant virus expressing human APP695. Conditioned media and/or cells were harvested 6 days after infection. Cells and debris were removed by centrifugation (at 1000 x g for 15 min).
Recombinant baculoviruses were produced according to published protocols. A fragment containing full-length APP 695 was subcloned into the baculovirus transfer vector pBlueBac3 (Invitrogen). The resulting recombinant vector was co-transfected with baculovirus DNA into sf9 cells. Recombinant APP expression was verified by Western blot hybridization using mouse MAb against human APP (Cat # MAB348, Millipore).
APPs was purified from baculovirus conditioned medium to >95% purity, as assessed by densitometry analysis of Coomassie stained SDS PAGE gels, by Arvys Proteins, Stamford, CT, using the following strategy. The conditioned medium proteins were purified by heparin-affinity chromatography, followed by two gel filtration chromatography steps over HiPrep Sephacryl S300 columns and two steps of anion exchange chromatography on HiTrapQ columns.
The binding affinities of peptides P1, scrambled P1, P4, P5, P7 and P8 for the soluble ectodomain of APP or control IgG were measured by biolayer interferometry on an Octet RED96 System (Pall FortéBio Corp., Menlo Park, CA). This system monitors interference of light reflected from two sources (an internal reflection surface and the liquid/solid interface of a fiber optic sensor) to measure the rate of binding of molecules to the biosensor surface.
Peptides were synthesized and biotinylated at the NH2-terminus by Dr. Michael Freydkin at Biopeptides, Inc., San Diego, CA, and purified to >95% by HPLC. Biotinylated peptides were loaded onto Streptavidin (SA) biosensors (Pall FortéBio Corp.) at empirically determined concentrations. All affinity measurements were carried out in Kinetics Buffer (KB) (1X PBS, 0.002% Tween-20, and 0.01% BSA) at 30°C. Typically, the biosensors were pre-equilibrated in KB for 120s, loaded with a biotinylated peptide at optimal concentrations and times, quenched with 10 μg/ml biocytin in KB for 180s, brought to baseline in KB for 120s and transferred to wells containing purified APPs (0–200 nM). Multiple negative controls were run for each peptide including association buffer only (no APP) or with IgG replacing APP. Binding kinetics were calculated using the FortéBio Data Analysis v7.1 software. The association (k on) and dissociation (k off) rate constants were obtained by fitting the association and dissociation data to a 1:1 model. Binding affinity, KD, was calculated as k off/k on.
(In BLI a coated tip is dipped into the sample, and binding shifts an interference pattern.)

For data set [4] the following is noted: ref evidence that will be presented elsewhere, cited from earlier work. From the text:
Two types of technologies have largely been pursued in the field thus far in efforts to reduce the levels of Aβ: β- or γ- secretase inhibitors or modulators, and the use of Aβ-specific monoclonal antibodies. Neither approach has been entirely successful, and γ-secretase inhibitors have been particularly problematic because of off-target effects due to the inhibition of their other substrates, Notch in particular.

Data set [5] has as its system NICD / γ-secretase in Jurkat cells. The data set can be described thus: NICD levels in extracts of Jurkat cells by ELISA (γ-secretase activity). The note with it: 0–10 μM, 24 h, 450 nm, percent control, n = 2–3.
Method: Jurkat cells (Sigma) were cultured in RPMI 1640 medium supplemented with 10% FCS, 2 mM L-glutamine, penicillin and streptomycin at 37°C in the presence of 5% CO2. […] After harvesting the cells, extracts were prepared by sonication in lysis buffer (Cell Signaling Technologies) supplemented with 1mM PMSF and complete protease inhibitor cocktail (Roche). The solubilized extracts were then used in ELISA assays to determine NICD levels, as a measure of γ-secretase activity, using the PathScan Cleaved Notch 1 (Val 1744) sandwich ELISA kit (Cell Signaling Technologies) according to the manufactuer’s protocols.
For data set [6], the system named is NICD (γ-secretase activity). Put plainly: NICD levels in neocortex of treated mThy1-hAPP mice by Western blot (γ-secretase activity). The note with it: peptide-infused mThy1-hAPP mice vs PBS, n = 5, two weeks after end of treatment. In kind it is in vivo, mouse. The protocol: Extracts of neocortex of mThy1-hAPP mice treated with P4, P8 or PBS only were electrophoresed on SDS gels and Western blotted with primary rabbit antibodies against NICD (Cat# 07–1232, Millipore) at 4°C overnight, followed by horse-radish peroxidase (HRP)-conjugated goat anti-rabbit IgG (Bio-Rad). The immunoreactive bands were detected by chemiluminescence (Thermo Scientific).
An optimal therapeutic approach to AD would avoid producing serious effects on other biochemically and physiologically important processes, as would occur if the cleavages of any of the other substrates of β- or γ-secretase were affected in the process of reducing the levels of Aβ. An especially well-studied example is the γ-secretase activity of PS-1 that is critically involved in the final enzymatic cleavage of Aβ from APP; it also functions in an essential developmental process that generates NICD from Notch. […] At the same time we analyzed the same tissue samples for their β-secretase (BACE-1) activity and APP expression. Extracts were prepared of the neocortex of Tg mice that had been treated with P4, P8 or PBS, and the levels of NICD were determined by Western blot analysis with a primary rabbit Ab against NICD. […]
In general terms: Immunoblotting shows a protein as a band on a membrane.

T1 sequence (P05067 18-612 isoform P05067-4 limits assumed): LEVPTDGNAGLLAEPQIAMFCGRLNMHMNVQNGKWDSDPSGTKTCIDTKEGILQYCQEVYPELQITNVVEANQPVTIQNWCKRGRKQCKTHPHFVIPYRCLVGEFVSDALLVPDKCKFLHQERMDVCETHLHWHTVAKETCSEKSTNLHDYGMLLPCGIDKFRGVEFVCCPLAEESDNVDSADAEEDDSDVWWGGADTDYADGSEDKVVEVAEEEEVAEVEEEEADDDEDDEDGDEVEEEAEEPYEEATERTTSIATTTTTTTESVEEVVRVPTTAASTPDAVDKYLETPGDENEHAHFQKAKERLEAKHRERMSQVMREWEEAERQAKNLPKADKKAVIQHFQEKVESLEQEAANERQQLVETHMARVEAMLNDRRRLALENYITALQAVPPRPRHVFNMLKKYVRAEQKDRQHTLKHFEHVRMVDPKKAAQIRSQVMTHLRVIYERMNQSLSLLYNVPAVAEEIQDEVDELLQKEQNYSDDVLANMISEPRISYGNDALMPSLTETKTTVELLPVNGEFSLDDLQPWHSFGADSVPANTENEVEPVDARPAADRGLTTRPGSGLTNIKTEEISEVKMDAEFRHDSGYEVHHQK

Turning to “PTERLLKGTVRLKQQLDQDESDARNLRNNLNPQRGFMALDESERHENRSAMQVESHQNPHPPYETEQENDEGSGSEYSNV [SP1, scrambled P1, control peptide]”, in data set [1], the “BACE-1 activity in IMR-32 cells, peptides (in words)” value is “remained essentially unchanged”. For the same sequence, the “Effect on Aβ40 and 42 production in vitro (in words)” value in data set [2] (0–5 μM peptide, 24 h, IMR-32 culture medium, ELISA) was “no significant changes in Aβ levels”. In addition, the “Production of total Aβ and of Aβ 40 and 42 (summary in words)” value in data set [2] (Discussion summary, stated as in vitro and in vivo (mThy1-hAPP Tg mice)) is “did not reduce Aβ”. In addition, in data set [3] (Kinetics Buffer), the “Binding to purified APPs (in words)” value is given as “no significant binding to APP”.
On to DEEEDEEL [Peptide P8], for which the “Stability (in words)” value in data set [4] (matrix not stated) is given as “stable”. For the same sequence, the “Brain delivery (in words)” value in data set [4] (rats) is listed as “can be successfully delivered to the brain in rats”. Besides, in data set [5], the “NICD levels in Jurkat cells, peptides (in words)” value is on record as “no appreciable change in the levels of NICD”. Besides, the “NICD levels in neocortex (in words)” value in data set [6] is recorded as “not accompanied by any significant changes in the levels of NICD”. In data set [3] (1:1 model, Kinetics Buffer), this sequence gave a koff of 0.00306 s⁻¹ and a kon of 886000 M⁻¹ s⁻¹. The same sequence gave a Kd in data set [3] (k off/k on, 1:1 model, Kinetics Buffer (1X PBS, 0.002% Tween-20, 0.01% BSA)) of 3.45 nM.
